Several values for one entry are separate records, joined by “and”; a condition that tells them apart may be missing. Identical values can stand only once.
Legend:
[1] = target: T1, bradykinin type 2 (BK2) receptors (Rattus norvegicus, UniProt P25023); assay: standard rat uterus pA2 assay (in vitro B2 antagonist activity); conditions: for activity in rat uterus functional tissue assay: summary of Table 1
T1 construct: Uterine horns were removed, placed under a 1 g resting tension in 4 mL tissue baths; from tissue; host or cells: rat uterine horns (Sprague-Dawley, stilbesterol-pretreated)
T1 sequence (P25023 1-396): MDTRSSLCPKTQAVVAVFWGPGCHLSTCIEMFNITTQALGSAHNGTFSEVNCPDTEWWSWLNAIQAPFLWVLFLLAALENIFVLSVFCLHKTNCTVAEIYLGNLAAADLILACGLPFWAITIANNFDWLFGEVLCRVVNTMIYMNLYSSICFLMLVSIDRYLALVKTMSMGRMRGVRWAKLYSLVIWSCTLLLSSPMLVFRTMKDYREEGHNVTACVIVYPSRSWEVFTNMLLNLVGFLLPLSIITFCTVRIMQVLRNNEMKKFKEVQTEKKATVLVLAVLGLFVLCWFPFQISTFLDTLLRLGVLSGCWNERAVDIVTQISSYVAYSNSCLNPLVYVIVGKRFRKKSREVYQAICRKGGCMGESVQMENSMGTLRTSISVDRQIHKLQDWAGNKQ
Description: The standard rat uterus pA2 assay was conducted as follows:
Female Sprague-Dawley rats (200-250 g) were pretreated with stilbesterol (100 μg/kg) and killed 18 hours later by a blow on the head and exsanguinated. Uterine horns were removed, placed under a 1 g resting tension in 4 mL tissue baths containing De Jalon's solution at 31° C. and aerated. […] Antagonist potency was calculated according to the method of Arunlakshana and Schild (Arunlakshana, O., Schild, H. O., Br. J. Pharmacology 14 48-58 (1959)). […] The difference in pD2 values compared to concurrent control reflected the "percentage recovery" of agonist response.

BK2 receptors = target: T2, BK2 receptors (Oryctolagus cuniculus, UniProt Q28642); assay: rabbit blood pressure BK2 ED50; format: in vivo
T2 construct: from tissue; host or cells: live anesthetized New Zealand White rabbit (vascular system)
T2 sequence (Q28642 1-367): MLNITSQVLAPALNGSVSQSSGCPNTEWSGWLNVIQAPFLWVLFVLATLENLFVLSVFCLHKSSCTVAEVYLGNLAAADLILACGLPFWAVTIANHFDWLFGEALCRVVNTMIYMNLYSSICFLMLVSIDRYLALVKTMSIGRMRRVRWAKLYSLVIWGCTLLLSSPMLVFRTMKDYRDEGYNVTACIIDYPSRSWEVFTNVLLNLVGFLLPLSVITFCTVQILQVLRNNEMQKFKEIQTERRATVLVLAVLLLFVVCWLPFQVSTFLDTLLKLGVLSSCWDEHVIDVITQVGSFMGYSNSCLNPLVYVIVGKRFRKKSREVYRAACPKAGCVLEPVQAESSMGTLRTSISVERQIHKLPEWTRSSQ
Text: (§1) Male New Zealand White rabbits were anesthetized with pentobarbital and femoral arteries were cannulated for the recording of blood pressure. Cannulae were placed in the femoral veins for the bolus injection or continuous infusion of compounds. […] Following an equilibration period the specific experimental procedure was started.

BK1 receptors = target: T3, BK1 receptors (Oryctolagus cuniculus, UniProt P48748); assay: LPS-treated rabbit blood pressure BK1 ED50; format: in vivo; conditions: for BK1 ED50: LPS-treated rabbit, i.v. infusion
T3 construct: upregulation of BK1 receptors in the vascular system; from tissue; host or cells: live anesthetized LPS-pretreated New Zealand White rabbit (vascular system)
T3 sequence (P48748 1-352): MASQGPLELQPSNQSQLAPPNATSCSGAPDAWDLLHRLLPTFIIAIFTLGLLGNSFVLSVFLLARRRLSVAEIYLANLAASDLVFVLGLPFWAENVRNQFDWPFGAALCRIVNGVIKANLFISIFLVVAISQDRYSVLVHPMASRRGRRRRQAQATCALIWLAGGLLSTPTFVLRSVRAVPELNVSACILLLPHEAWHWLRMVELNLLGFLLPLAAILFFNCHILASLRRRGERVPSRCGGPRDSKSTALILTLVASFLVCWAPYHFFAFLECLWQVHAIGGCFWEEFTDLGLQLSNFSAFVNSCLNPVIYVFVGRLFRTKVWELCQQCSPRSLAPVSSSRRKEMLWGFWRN
Description: as §1
Stimulation of both pre-existing BK2 and induced BK1, receptors produces hypotension. […] Both agonists were tested in the absence and then in the presence of increasing doses of CP-0597 (1, 3, and 10 μg/kg/min).

[2] = test system: blood pressure responses to vasoactive agents; assay: selectivity of intravenous CP-0597, rabbit blood pressure; format: in vivo; conditions: 0.1 μg/kg/min i.v.; for responses to the other vasoactive agents after antagonist: acetylcholine, norepinephrine, substance p, angiotensin, angiotensin II
Text: as §1

response to Bradykinin [3] = assay: duration of action of intravenously infused CP-0597, rabbit blood pressure; format: in vivo; conditions: one hour (60 min) after 0.1 μg/kg/min infusion stopped
Description: as §1
CP-0597 (0.1 μg/kg/min) was intravenously infused for the above mentioned selectivity experiments.

[4] = test system: blood pressure responses to vasoactive agents; assay: selectivity of subcutaneous CP-0597, rat blood pressure; format: in vivo; conditions: 1.0 mg/kg s.c., thirty minutes after injection
Description: (§2) Male Sprague-Dawley rats were anesthetized with pentobarbital and femoral arteries were cannulated for the recording of blood pressure. Both femoral veins in each animal were cannulated for the administration of test compounds. […] Following an equilibration period the specific experimental procedure was started.
Animals were then treated with CP-0597 (1.0 mg/kg s.c.). Thirty minutes after the s.c. injection each vasoactive agent was retested and compared to pre-antagonist responses.

response to Bradykinin [5] = assay: duration of action of i.v. bolus injections of CP-0597, rat blood pressure; format: in vivo
Description: as §2
At 3 μg/kg the response was ca. 50% inhibited and had returned to control by 30 minutes. At […] and 30 μg/kg the response was 100% inhibited with a 50% return to control level by 60 minutes and full recovery of response by 90 minutes.

response to Bradykinin [6] = assay: duration of action of subcutaneous CP-0597, rat blood pressure; format: in vivo; conditions: for inhibition of responses to Bradykinin, duration of action (s.c.): rat
Description: as §2
Animals were then given subcutaneous injections of CP-0597 (1 and 3 mg/kg s.c.). […] At 1 mg/kg s.c. the responses were still 100% inhibited at 3 hours post injection. At 3 mg/kg s.c. the responses were still 100% inhibited at 5 hours post injection.

guinea pig ileum = assay: activity on guinea pig ileum tissue
[7] = i.v. bolus 10 μg/kg (text: 20%; Table 3: 10 μg/kg/min)
[8] = i.v. bolus 30 μg/kg (Table 3: 30 μg/kg/min)

D-Arg-Arg-Pro-Hyp-Gly-Thi-Ser-D-Tic-NChg-Arg [Compound 5]
% Recovery ([1]; recovery of agonist response after washing 40 minutes following highest antagonist concentration): 71% | activity in rat uterus functional tissue assay [1]: highly potent antagonists | ED50 blocking bradykinin at BK2 receptors in live rabbits (BK2 receptors): 0.051 µg/kg/min | BK2 ED50 (BK2 receptors; i.v. infusion): 29.2 pmol/kg/min | BK1 ED50 (BK1 receptors): 1.7 nmol/kg/min | BK1 ED50 (BK1 receptors; des-Arg9 Bradykinin, listed as CP-0597): 2.9 ± 0.92 µg/kg/min and 2.9 µg/kg/min | BK1 blocking activity in live rabbits (BK1 receptors; rabbit): 2.9 µg/kg/min | response to Bradykinin after antagonist [2]: antagonized | responses to the other vasoactive agents after antagonist [2]: not affected | responses to the other vasoactive agents after antagonist ([2]; listed as CP-0597): unaffected | inhibition of the response to Bradykinin, duration of action (i.v. infusion) (response to Bradykinin [3]): 100% | response to Bradykinin after antagonist [4]: antagonized | responses to the other vasoactive agents after antagonist ([4]; 1 mg/kg): not affected | responses to the other vasoactive agents after antagonist ([4]; listed as CP-0597, 1 mg/kg): unaffected | time of return to control (100% recovery) (response to Bradykinin [5]; i.v. bolus 3 μg/kg (Table 3: 3.0 μg/kg/min)): ≤ 30 min | inhibition of response to Bradykinin (response to Bradykinin [5]; [7]): 100% | time of 50% recovery (response to Bradykinin [5]; [7]): ≤ 60 min | time of 100% recovery (response to Bradykinin [5]; [7]): ≤ 90 min | inhibition of response to Bradykinin (response to Bradykinin [5]; [8]): 100% | time of 50% recovery (response to Bradykinin [5]; [8]): ≤ 60 min | time of 100% recovery (response to Bradykinin [5]; [8]): ≤ 90 min | inhibition of responses to Bradykinin, duration of action (s.c.) (response to Bradykinin [6]; 1 mg/kg s.c., 3 hours post injection): 100% | inhibition of responses to Bradykinin, duration of action (s.c.) (response to Bradykinin [6]; 3 mg/kg s.c., 5 hours post injection): 100% | blockage of agonist effect (response to Bradykinin [6]; up to 5 hours after a subcutaneous dose (3 mg/Kg, rat)): complete blockage

D-Arg-Arg-Pro-Hyp-Gly-Thi-Ser-D-Tic-NMch-Arg [Compound 12]
B2 pA2 (Rat Uterus) ([1]; rat uterus, antagonist preincubated for 15 minutes): Agonist | activity in rat uterus functional tissue assay [1]: agonists | activity on guinea pig ileum (guinea pig ileum): antagonist activity

Source: patent US5700779A (Cortech, Inc., priority 1996, dated 1997)
